Counter-ions that a name gives are not always drawn. Like-named read-outs stand apart in the source and are kept apart here.
Assays:
CTX-M15 β-lactamase = biological target: T1, CTX-M15 β-lactamase (Escherichia coli, UniProt Q9EXV5); assay: β-lactamase enzyme inhibition assay (nitrocefin substrate), CTXM-15; assay type: biochemical
T1 construct: expressed as native untagged proteins; made in house; host or cells: E. coli BL21(DE3)
Summary of the method: (§1)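 Untagged recombinant β-lactamases from E. coli BL21(DE3), purified by ion exchange and gel filtration; 10 min, 37 °C preincubation with compound in PBS pH 7.0; nitrocefin 100 μM final; A486 kinetics, 10 min; IC50 from max rate vs control.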

[1] = biological target: T2, VIM-2 metallo β-lactamase (Pseudomonas aeruginosa, UniProt Q9K2N0); assay: β-lactamase enzyme inhibition assay (nitrocefin substrate), VIM-2; assay type: biochemical; conditions: nitrocefin 100 μM, 37° C., PBS pH 7.0; read-out: VIM-2 IC50
T2 construct: made in house
Protocol: Isolation of β-lactamases. For SHV-5, p99 AmpC, KPC-2 and CTX-M15 β-lactamases, E. coli BL21(DE3) bacterial cells carrying expression plasmids (expressed as native untagged proteins) for the individual β-lactamases were grown in 1 L of Superbroth (Teknova Inc. Hollister, Calif.) supplemented with 100 μg/ml kanamycin and 1×5052 (0.5% glycerol, 0.05% glucose and 0.2% α-lactose) at 35° C. for 18-20 hours. Cells were harvested by centrifugation (4,000×g, 4° C., 20 min), and resuspended in 50 ml of 10 mM HEPES pH 7.5 (1/20 of the initial volume). The cells were lysed by sonication (5 pulses of 45 seconds) at 45 W on ice. The lysates were clarified by centrifugation at 10,000×g for 40 minutes at 4° C. Samples were diluted 5-fold in 50 mM sodium acetate pH 5.0, stored overnight at 4° C., after which they were centrifuged at 10,000×g for 30 minutes to clarify, and filtered through 0.45 μm filters. The samples were loaded onto a 5 ml Capto S sepharose cation exchange column (GE Healthcare) pre-equilibrated with 50 mM sodium acetate pH 5.0. The column was washed with 5 column volumes of 50 mM sodium acetate pH 5.0 to wash out unbound protein and a linear gradient of NaCl (0 to 500 mM) was used to elute the protein (over 16 CV) from the column. Fractions were assayed for β-lactamase activity using Centa (Calbiochem, Gibbstown, N.J.) as a reporter β-lactamase substrate for activity in the isolated fractions. Active fractions were pooled, concentrated and further purified by gel filtration chromatography on a Superdex 75 prep grade gel filtration column (GE Healthcare, Piscataway, N.J.) pre-equilibrated in 50 mM Hepes pH 7.5, 150 mM NaCl. Active fractions were pooled concentrated, quantitated by BCA protein determination (Thermo Scientific, Rockford, Ill.), and frozen at −80° C. in 20% glycerol until use.
For VIM-2 metallo (β-lactamase, the procedure was identical with the following exceptions: 1) the protein was not pH adjusted to pH 5 with 50 mM sodium acetate, 2) the chromatography step was changed to a 5 ml Q sepharose anion exchange column pre-equilibrated with 50 mM Hepes pH 7.5, and 3) elution of the protein was achieved by a linear gradient of NaCl (0-600 mM). Finally, the VIM-2 purification required a second run (3rd step) on the Q sepharose anion exchange column to achieve acceptable purity (>90%).
(§2) β-lactamase Inhibition. To determine the level of inhibition of β-lactamase enzymes, compounds were diluted in PBS at pH 7.0 to yield concentrations between 100 and 0.005 μM in microtiter plates. An equal volume of diluted enzyme stock was added, and the plates were incubated at 37° C. for 10 min. Nitrocefin solution was then dispensed as substrate into each well at a final concentration of 100 μM, and the plates were immediately read with the kinetic program at 486 nm for 10 min on the SPECTRAMAX® Plus^384 (high-throughput microplate spectrophotometer; Molecular Devices Corp., Sunnyvale, Calif.). Maximum rates of metabolism were then compared to those in control wells (without inhibitors), and percentages of enzyme inhibition were calculated for each concentration of inhibitor. The concentration of inhibitor needed to reduce the initial rate of hydrolysis of substrate by 50% (IC50) was calculated as the residual activity of β-lactamase at 486 nm using the SoftMax Pro 5.0 software (Molecular Devices Corp.).
Using the methodology described above, examples of the current invention were evaluated for their ability to inhibit β-lactamase enzymes. The results of these assays are summarized in Table 2 for representative enzymes across different subtypes (note SHV-5 and CTXM-15 exemplify different subclasses of Ambler Class A Extended Spectrum Beta Lactamases, KPC-2 exemplifies Class A carbapenemases, P99 represents chromosomal Class C AmpC, VIM-2 exemplifies subclass B1 of metallo-β-lactamases, and OXA-23 represents chromosome-encoded Class D oxacillin-hydrolyzing β-lactamases), NT=not tested.

KPC-2 β-lactamase = biological target: T3, KPC-2 β-lactamase (Klebsiella pneumoniae, UniProt Q9F663); assay: β-lactamase enzyme inhibition assay (nitrocefin substrate), KPC-2; assay type: biochemical
T3 construct: expressed as native untagged proteins; made in house; host or cells: E. coli BL21(DE3)
T3 sequence (Q9F663 25-293 limits assumed): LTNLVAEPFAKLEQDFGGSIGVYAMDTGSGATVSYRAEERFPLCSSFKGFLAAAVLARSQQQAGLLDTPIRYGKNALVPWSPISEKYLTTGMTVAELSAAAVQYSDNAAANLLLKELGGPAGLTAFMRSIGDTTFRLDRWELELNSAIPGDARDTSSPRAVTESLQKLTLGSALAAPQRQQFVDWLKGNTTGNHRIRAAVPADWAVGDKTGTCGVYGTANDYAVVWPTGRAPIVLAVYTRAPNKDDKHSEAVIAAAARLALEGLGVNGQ
Summary of the method: as §1

p99 AmpC β-lactamase = biological target: T4, p99 AmpC β-lactamase (Enterobacter cloacae, UniProt P05364); assay: β-lactamase enzyme inhibition assay (nitrocefin substrate), P99 AmpC; assay type: biochemical
T4 construct: expressed as native untagged proteins; made in house; host or cells: E. coli BL21(DE3)
T4 sequence (P05364 21-381): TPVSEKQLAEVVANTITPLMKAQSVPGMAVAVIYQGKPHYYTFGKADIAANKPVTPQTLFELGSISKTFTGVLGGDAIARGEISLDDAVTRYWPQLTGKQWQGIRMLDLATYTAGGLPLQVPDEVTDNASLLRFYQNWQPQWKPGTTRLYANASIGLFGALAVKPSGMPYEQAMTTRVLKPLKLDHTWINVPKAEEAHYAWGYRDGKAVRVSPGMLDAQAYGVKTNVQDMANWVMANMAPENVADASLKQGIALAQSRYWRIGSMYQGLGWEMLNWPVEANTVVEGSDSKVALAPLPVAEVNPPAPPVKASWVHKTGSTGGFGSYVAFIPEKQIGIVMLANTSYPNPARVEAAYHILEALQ
Summary of the method: as §1

OXA-23 β-lactamase = biological target: T5, OXA-23 β-lactamase (Acinetobacter baumannii, UniProt Q9L4P2); assay: β-lactamase enzyme inhibition assay (nitrocefin substrate), OXA-23 crude extract; assay type: biochemical; conditions: nitrocefin 100 μM, 37° C., PBS pH 7.0; read-out: OXA-23 IC50
T5 construct: crude β-lactamase extracts were prepared from 20 ml overnight cultures; endogenous in cells; host or cells: Acinetobacter baumannii cells containing OXA-23 (crude freeze-thaw extract)
T5 sequence (Q9L4P2 18-273): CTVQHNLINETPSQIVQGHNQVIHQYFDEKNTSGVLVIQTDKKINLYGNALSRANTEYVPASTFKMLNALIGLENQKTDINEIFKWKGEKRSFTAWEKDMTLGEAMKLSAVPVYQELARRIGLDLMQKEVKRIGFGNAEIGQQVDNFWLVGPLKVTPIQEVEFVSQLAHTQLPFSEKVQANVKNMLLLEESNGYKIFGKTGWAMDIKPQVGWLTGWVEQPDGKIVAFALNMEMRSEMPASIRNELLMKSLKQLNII
Protocol: For OXA-23 β-lactamase, crude β-lactamase extracts were prepared from 20 ml overnight cultures with shaking. Acenitobacter baumanni cells containing OXA-23 were further diluted 10-fold and grown to mid-log phase (OD at 600 nm, 0.5-0.8) in Mueller-Hinton II (MH-II) broth at 37° C. The cells were pelleted at 5000 g, washed and resuspended in 2 mL PBS pH 7.0. The β-lactamases were extracted by four cycles of freezing and thawing followed by centrifugation. β-lactamase activity in the extracts was measured with the chromogenic cephalosporin nitrocefin. The amount of protein in each β-lactamase preparation was determined by the bicinchoninic acid (BCA) assay.
as §2

SHV-5 β-lactamase = biological target: T6, SHV-5 β-lactamase (Klebsiella pneumoniae, UniProt P0A3M1); assay: β-lactamase enzyme inhibition assay (nitrocefin substrate), SHV-5; assay type: biochemical
T6 construct: expressed as native untagged proteins; made in house; host or cells: E. coli BL21(DE3)
T6 sequence (P0A3M1 22-286): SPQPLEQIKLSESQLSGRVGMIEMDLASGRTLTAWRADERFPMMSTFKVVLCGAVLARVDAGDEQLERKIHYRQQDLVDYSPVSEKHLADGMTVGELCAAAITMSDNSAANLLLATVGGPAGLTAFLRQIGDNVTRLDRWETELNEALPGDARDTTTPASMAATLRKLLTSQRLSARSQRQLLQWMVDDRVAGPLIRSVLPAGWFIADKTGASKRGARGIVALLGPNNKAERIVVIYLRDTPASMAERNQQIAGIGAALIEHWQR
Summary of the method: as §1

[2] = system: E. cloacae expressing the Class C P99+; assay: In vitro antibacterial assay of β-lactamase inhibition (broth microdilution MIC), E. cloacae P99+; assay type: cell-based
Summary of the method: (§3)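 Broth microdilution in cation-adjusted Mueller Hinton broth; strains pre-grown 3–5 h with 50 μg/mL ampicillin. Test compounds 2-fold serially diluted to a final 8–0.015 μg/mL alongside a β-lactam, CLSI inoculum. MIC read visually after 16–20 h at 37° C.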

[3] = system: K. pneumoniae expressing the Class A carbapenemase KPC-2; assay: microbe, parasite or virus in culture; assay type: cell-based
Summary of the method: as §3

[4] = system: K. pneumoniae expressing the Class A Extended Spectrum Beta-Lactamase (ESBL) CTX-M-15; assay: In vitro antibacterial assay of β-lactamase inhibition (broth microdilution MIC), K. pneumoniae CTX-M-15; assay type: cell-based
Summary of the method: as §3

[5] = system: E. coli expressing the Class A ESBL SHV-5; assay: In vitro antibacterial assay of β-lactamase inhibition (broth microdilution MIC), E. coli SHV-5; assay type: cell-based
Summary of the method: as §3

[6] = system: P. aeruginosa expressing the Class B metallo β-lactamase VIM-2; assay: In vitro antibacterial assay of β-lactamase inhibition (broth microdilution MIC), P. aeruginosa VIM-2; assay type: cell-based; conditions: in presence of Ceftazidime 16 μg/mL (Examples 1-56)
Description: To determine the ability of test compounds to potentiate the inhibition of the growth of bacterial strains producing beta-lactamase enzymes, classic cell based screening assays were employed. Five bacteria strains producing beta-lactamase enzymes were used: K. pneumoniae expressing the Class A Extended Spectrum Beta-Lactamase (ESBL) CTX-M-15, E. coli expressing the Class A ESBL SHV-5, E. cloacae expressing the Class C P99+, K. pneumoniae expressing the Class A carbapenemase KPC-2, and P. aeruginosa expressing the Class B metallo β-lactamase VIM-2. In order to evaluate the ability of test compounds to inhibit beta-lactamase activity, Applicants used a modification of the broth microdilution assay. The assay was conducted in Cation Adjusted Mueller Hinton Broth (CAMHB, BD # 212322, BD Diagnostic Systems, Sparks, Md.). Bacteria strains were grown for 3-5 hours in CAMBH broth. All five strains were grown in presence of 50 μg/mL ampicillin to ensure resistance is maintained. In the meantime, test compounds were diluted in DMSO to a 0.1 mg/mL stock. The compounds were added to a microtiter plate and were diluted in 2-fold serial dilutions in CAMHB in a final concentration range of 8 μg/mL to 0.015 μg/ml. […] Each of these compound plates are made in quadruplicate, one for each bacteria strain. In addition to the titration of test compounds the MICs of a panel of cephalosporins is also tested to ensure the strains are behaving consistently from test to test. Once the test compound and cephalosporin are added the plates can be inoculated. Inocula are conducted according to CLSI broth microdilution method. After inoculation the plates are incubated for 16-20 hours at 37° C. then the Minimal Inhibitory Concentration (MIC) of the test compound is determined visually.
Using the methodology described above, examples of the current invention were evaluated for their ability to inhibit the growth of β-lactamase producing bacteria in the presence of a β-lactam antibiotic.

[7] = in presence of Ceftazidime 8 μg/ml (Examples 1-56)
[8] = nitrocefin 100 μM, 37° C., PBS pH 7.0, read-out: P99 AmpC IC50
[9] = in presence of Piperacillin 16 μg/ml (Examples 57-65)

T1 sequence (Q9EXV5 entry or part of it): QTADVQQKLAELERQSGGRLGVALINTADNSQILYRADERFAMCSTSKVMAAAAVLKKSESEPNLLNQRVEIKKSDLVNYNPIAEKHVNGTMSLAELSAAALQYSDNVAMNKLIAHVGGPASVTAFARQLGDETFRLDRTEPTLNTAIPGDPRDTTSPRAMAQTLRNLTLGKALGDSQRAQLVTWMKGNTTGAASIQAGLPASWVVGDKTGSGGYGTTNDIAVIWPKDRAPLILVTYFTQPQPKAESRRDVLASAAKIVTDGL

SMILES: O=C(Cc1ccc(C[n+]2ccccc2)cc1)N[C@@H](Cc1cccc(C(=O)O)c1O)B(O)O [Example 42, formate]
- IC50 (CTX-M15 β-lactamase): 4 nM
- IC50 [1]: > 1000 nM
- IC50 (KPC-2 β-lactamase): 10 nM
- IC50 (p99 AmpC β-lactamase): 4 nM
- IC50 (OXA-23 β-lactamase): 153 nM
- IC50 (SHV-5 β-lactamase): 2 nM

SMILES: CCNCc1ccc(C(=O)N[C@@H](Cc2cccc(C(=O)O)c2O)B(O)O)cc1.Cl [Example 6, 2(R)-3-[2-(4-(N-ethylaminomethyl)benzoylamino)-2-borono-ethyl]-2-hydroxy-benzoic acid Hydrochloride]
- MIC of example compound, E. cloacae P99+ [2, 7]: 0.25 µg/mL
- IC50 (CTX-M15 β-lactamase): 4 nM
- IC50 [1]: 57 nM
- IC50 (KPC-2 β-lactamase): 4 nM
- IC50 (p99 AmpC β-lactamase; [8]): 1 nM
- IC50 (OXA-23 β-lactamase): > 1000 nM
- MIC of example compound, K. pneumoniae KPC-2 [3, 7]: 0.03 µg/mL
- MIC of example compound, K. pneumoniae CTX-M-15 [4, 7]: 1 µg/mL
- IC50 (SHV-5 β-lactamase): > 1000 nM
- MIC of example compound, E. coli SHV-5 [5, 7]: 4 µg/mL

SMILES: Cl.Nc1cc(C(=O)N[C@@H](Cc2cccc(C(=O)O)c2O)B(O)O)ccn1 [Example 8, (2R)-3-{2-[(2-Amino-pyridine-4-carbonyl)-amino]-2-borono-ethyl}-2-hydroxy-benzoic acid]
- MIC of example compound, E. cloacae P99+ [2, 7]: 0.5 µg/mL
- IC50 (CTX-M15 β-lactamase): 28 nM
- IC50 [1]: 700 nM
- IC50 (KPC-2 β-lactamase): 5 nM
- IC50 (p99 AmpC β-lactamase; [8]): 2 nM
- IC50 (OXA-23 β-lactamase): 144 nM
- MIC of example compound, K. pneumoniae KPC-2 [3, 7]: 0.06 µg/mL
- MIC of example compound, K. pneumoniae CTX-M-15 [4, 7]: 0.5 µg/mL
- IC50 (SHV-5 β-lactamase): 29 nM
- MIC of example compound, E. coli SHV-5 [5, 7]: 1 µg/mL

SMILES: Nc1ccc(CC(=O)N[C@@H](Cc2cccc(C(=O)O)c2O)B(O)O)cn1 [Example 46, (1R)-1-(6-amino-pyridin-3-yl-acetylamino)-2-(2-hydroxy-3-carboxyphenyl)ethyl-1-boronic acid formate]
- MIC of example compound, E. cloacae P99+ [2, 7]: 0.06 µg/mL
- IC50 (CTX-M15 β-lactamase): 5 nM
- MIC of example compound, P. aeruginosa VIM-2 [6]: >8 µg/mL
- IC50 (KPC-2 β-lactamase): 3 nM
- IC50 (p99 AmpC β-lactamase; [8]): 4 nM
- IC50 (OXA-23 β-lactamase): 209 nM
- MIC of example compound, K. pneumoniae KPC-2 [3, 7]: 0.007 µg/mL
- MIC of example compound, K. pneumoniae CTX-M-15 [4, 7]: 0.03 µg/mL
- IC50 (SHV-5 β-lactamase): 0.7 nM
- MIC of example compound, E. coli SHV-5 [5, 7]: 0.06 µg/mL

SMILES: NCc1ccc(/C(=N/O)C(=O)N[C@@H](Cc2cccc(C(=O)O)c2O)B(O)O)cc1 [Example 53, 3-{2(R)-[2-(4-aminomethyl-phenyl)-2-hydroxyimino-acetylamino]-2-borono-ethyl}-2-hydroxy-benzoic acid hydrochloride]
- IC50 (CTX-M15 β-lactamase): 12 nM
- IC50 [1]: 312 nM
- IC50 (KPC-2 β-lactamase): 39 nM
- IC50 (OXA-23 β-lactamase): 350 nM
- IC50 (SHV-5 β-lactamase): 29 nM

SMILES: O=C(O)CNCc1ccc(CC(=O)N[C@@H](Cc2cccc(C(=O)O)c2O)B(O)O)cc1 [Example 58, (1R)-1-(2-{4-[(1-Carboxymethyl-amino)-methyl]-phenyl}-acetylamino)1-[(3-carboxy-2-hydroxy)benzyl]-methylboronic acid formate]
- MIC of example compound, E. cloacae P99+ [2, 9]: 2 µg/mL
- IC50 (CTX-M15 β-lactamase): 4 nM
- IC50 (KPC-2 β-lactamase): 13 nM
- IC50 (p99 AmpC β-lactamase; [8]): 6 nM
- IC50 (OXA-23 β-lactamase): 182 nM
- MIC of example compound, K. pneumoniae KPC-2 [3, 9]: 0.5 µg/mL
- MIC of example compound, K. pneumoniae CTX-M-15 [4, 9]: >8 µg/mL
- IC50 (SHV-5 β-lactamase): 0.5 nM
- MIC of example compound, E. coli SHV-5 [5, 9]: 0.5 µg/mL

Reference: patent US20100292185A1, “BETA-LACTAMASE INHIBITORS” (priority 2009, published 2010)
